Measured values taken from US20200231614A1, “PSMA TARGETED RADIOHALOGENATED UREAS FOR CANCER RADIOTHERAPY” (THE JOHNS HOPKINS UNIVERSITY, priority 2015, published 2020).
Like-named read-outs stand apart in the source and are kept apart here.

Tested on: PSMA + PC-3 PiP and PSMA − PC-3 flu tumor xenografts
Conditions: for Biodistribution: PC-3 PiP: PSMA+ tumor xenograft; for Biodistribution: PC-3 flu: PSMA− tumor xenograft
[1] = 21 H post-injection, comparative Table 13

## O=C(O)CC[C@H](NC(=O)N[C@@H](CCC(=O)NCCc1ccc([131I])cc1)C(=O)O)C(=O)O [[^131I]HS-549]
1 H post-injection
  Biodistribution: Lrg Int.: 0.52 ± 0.12 % ID/g
  Biodistribution: Sm int.: 1.98 ± 0.30 % ID/g
  Biodistribution: bladder: 4.34 ± 2.16 % ID/g
  Biodistribution: blood: 5.90 ± 1.05 % ID/g
  Biodistribution: heart: 2.30 ± 0.63 % ID/g
  Biodistribution: kidney: 106 ± 18.9 % ID/g
  Biodistribution: liver: 21.2 ± 4.14 % ID/g
  Biodistribution: lung: 4.60 ± 1.09 % ID/g
  Biodistribution: muscle: 0.86 ± 0.26 % ID/g
  Biodistribution: spleen: 6.76 ± 3.42 % ID/g
  Biodistribution: stomach: 0.92 ± 0.20 % ID/g
  Biodistribution: thyroid: 1.17 ± 0.43 % ID/g
  Biodistribution: PC-3 PiP: 78.1 ± 19.1 % ID/g
  Biodistribution: PC-3 flu: 2.21 ± 0.53 % ID/g
2 H post-injection
  Biodistribution: Lrg Int.: 1.32 ± 0.25 % ID/g
  Biodistribution: Sm int.: 2.42 ± 0.40 % ID/g
  Biodistribution: bladder: 2.34 ± 1.04 % ID/g
  Biodistribution: blood: 2.92 ± 0.32 % ID/g
  Biodistribution: heart: 1.14 ± 0.18 % ID/g
  Biodistribution: kidney: 96.6 ± 39.1 % ID/g
  Biodistribution: liver: 26.0 ± 3.09 % ID/g
  Biodistribution: lung: 2.73 ± 0.66 % ID/g
  Biodistribution: muscle: 0.46 ± 0.12 % ID/g
  Biodistribution: spleen: 2.71 ± 0.85 % ID/g
  Biodistribution: stomach: 0.47 ± 0.17 % ID/g
  Biodistribution: thyroid: 0.69 ± 0.29 % ID/g
  tumor/kidney ratio: 0.8
  Biodistribution: PC-3 PiP: 74.7 ± 13.1 % ID/g
  Biodistribution: PC-3 flu: 1.51 ± 0.30 % ID/g
21 H post-injection
  Biodistribution: Lrg Int.: 0.63 ± 0.39 % ID/g
  Biodistribution: Sm int.: 0.37 ± 0.06 % ID/g
  Biodistribution: bladder: 0.65 ± 0.20 % ID/g
  Biodistribution: blood: 1.39 ± 0.35 % ID/g
  Biodistribution: heart: 0.41 ± 0.09 % ID/g
  Biodistribution: kidney: 3.13 ± 1.65 % ID/g
  Biodistribution: liver: 1.86 ± 0.51 % ID/g
  Biodistribution: lung: 0.87 ± 0.27 % ID/g
  Biodistribution: muscle: 0.16 ± 0.04 % ID/g
  Biodistribution: spleen: 0.29 ± 0.12 % ID/g
  Biodistribution: stomach: 0.14 ± 0.04 % ID/g
  Biodistribution: thyroid: 0.36 ± 0.05 % ID/g
  tumor/kidney ratio: 7.2
  Biodistribution: PC-3 PiP: 22.6 ± 22.1 % ID/g
  Biodistribution: PC-3 flu: 0.44 ± 0.18 % ID/g
[1]
  Non-target organ uptake: spleen: 0.3 % D/g
  Non-target organ uptake: stomach: 0.14 % D/g
  Non-target organ uptake: thyroid: 0.36 % D/g
Biodistributions of Tables 2, 3, 9, 10
  PSMA positive tumor uptake (in words): demonstrated PSMA positive tumor uptake
Compared with [^131I]YC-I-27 and [^211At]YC-I-27
  Clearance from the kidneys (in words): clear from the kidneys giving higher tumor to kidney ratios
